Assay results as given in BindingDB's records for doi:10.1016/j.bmc.2008.02.078 (University of Tokyo, 2008).

These compounds were tested against Alpha-glucosidase MAL32 (Saccharomyces cerevisiae (strain ATCC 204508 / S288c), UniProt P38158) (assay: alpha-Glucosidase Inhibition Assay). Conditions: pH 7; 37 °C.
Experimental: The alpha-glucosidase inhibitory activity of test compounds was determined in a 96-well plate format. The reaction mixture containing enzyme and chromogenic substrate in the presence or absence of test compounds were incubated, and the amount of released p-nitrophenol was measured based on the absorbance at 405 nm. The IC50 values were calculated from the dose-response curves.

Sequence of Alpha-glucosidase MAL32 (P38158 whole entry): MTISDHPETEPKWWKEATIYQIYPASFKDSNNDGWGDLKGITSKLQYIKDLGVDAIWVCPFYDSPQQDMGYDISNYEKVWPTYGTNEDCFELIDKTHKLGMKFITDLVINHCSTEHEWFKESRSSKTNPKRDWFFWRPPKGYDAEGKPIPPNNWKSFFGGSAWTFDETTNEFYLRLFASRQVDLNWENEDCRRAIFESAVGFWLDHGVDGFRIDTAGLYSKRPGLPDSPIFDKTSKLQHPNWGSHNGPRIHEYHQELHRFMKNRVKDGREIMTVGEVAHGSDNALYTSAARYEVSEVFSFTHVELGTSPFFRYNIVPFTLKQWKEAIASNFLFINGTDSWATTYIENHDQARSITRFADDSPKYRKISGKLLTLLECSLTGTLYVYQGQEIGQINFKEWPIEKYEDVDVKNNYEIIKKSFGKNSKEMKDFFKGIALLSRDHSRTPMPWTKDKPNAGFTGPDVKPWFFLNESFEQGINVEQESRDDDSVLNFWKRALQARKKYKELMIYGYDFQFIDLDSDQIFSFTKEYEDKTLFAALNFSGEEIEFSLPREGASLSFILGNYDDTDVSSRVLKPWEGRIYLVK

SMILES	IC50 [µM]
COc1ccc2c(c1)CCc1ccc(cc1)Oc1cccc(c1)CCc1ccc-2c(OC)c1 [5,25-dimethoxy-14-oxapentacyclo[20.2.2.2^{10,13}.1^{15,19}.0^{2,7}]nonacosa-1(24),2(7),3,5,10,12,15,17,19(27),22,25,28-dodecaene]	> 30
CC(C)CC[C@@H](O)[C@@H](C)[C@H]1CCC2C3CC=C4C[C@@H](O)CC[C@]4(C)C3C[C@@H](C)C21 (stereo partly drawn) [(2R,5S,14S,16R)-14-[(2S,3R)-3-hydroxy-6-methylheptan-2-yl]-2,16-dimethyltetracyclo[8.7.0.0^{2,7}.0^{11,15}]heptadec-7-en-5-ol]	100
COc1ccc2cc1Oc1ccc(cc1)CCc1ccccc1-c1ccc(cc1)CC2 [16-methoxy-14-oxapentacyclo[20.2.2.2^{10,13}.1^{15,19}.0^{2,7}]nonacosa-1(24),2(7),3,5,10,12,15,17,19(27),22,25,28-dodecaene]	> 100
